Data as given in ChEMBL document CHEMBL1833803, “Discovery of 1-amino-5H-pyrido[4,3-b]indol-4-carboxamide inhibitors of Janus kinase 2 (JAK2) for the treatment of myeloproliferative disorders” (J Med Chem, 2011).

Tests used:
[1] = Selectivity ratio of IC50 for JAK3 to IC50 for JAK2
[2] = target: T1, Tyrosine-protein kinase JAK2 (Homo sapiens, UniProt O60674); test: Inhibition of JAK2 using biotin-EQEDEPEGDYFEWLE- NH2 as substrate
[3] = target: Voltage-gated inwardly rectifying potassium channel KCNH2 (Homo sapiens, UniProt Q12809); test: Inhibition of human hERG
Chain of Voltage-gated inwardly rectifying potassium channel KCNH2 (Q12809 whole entry): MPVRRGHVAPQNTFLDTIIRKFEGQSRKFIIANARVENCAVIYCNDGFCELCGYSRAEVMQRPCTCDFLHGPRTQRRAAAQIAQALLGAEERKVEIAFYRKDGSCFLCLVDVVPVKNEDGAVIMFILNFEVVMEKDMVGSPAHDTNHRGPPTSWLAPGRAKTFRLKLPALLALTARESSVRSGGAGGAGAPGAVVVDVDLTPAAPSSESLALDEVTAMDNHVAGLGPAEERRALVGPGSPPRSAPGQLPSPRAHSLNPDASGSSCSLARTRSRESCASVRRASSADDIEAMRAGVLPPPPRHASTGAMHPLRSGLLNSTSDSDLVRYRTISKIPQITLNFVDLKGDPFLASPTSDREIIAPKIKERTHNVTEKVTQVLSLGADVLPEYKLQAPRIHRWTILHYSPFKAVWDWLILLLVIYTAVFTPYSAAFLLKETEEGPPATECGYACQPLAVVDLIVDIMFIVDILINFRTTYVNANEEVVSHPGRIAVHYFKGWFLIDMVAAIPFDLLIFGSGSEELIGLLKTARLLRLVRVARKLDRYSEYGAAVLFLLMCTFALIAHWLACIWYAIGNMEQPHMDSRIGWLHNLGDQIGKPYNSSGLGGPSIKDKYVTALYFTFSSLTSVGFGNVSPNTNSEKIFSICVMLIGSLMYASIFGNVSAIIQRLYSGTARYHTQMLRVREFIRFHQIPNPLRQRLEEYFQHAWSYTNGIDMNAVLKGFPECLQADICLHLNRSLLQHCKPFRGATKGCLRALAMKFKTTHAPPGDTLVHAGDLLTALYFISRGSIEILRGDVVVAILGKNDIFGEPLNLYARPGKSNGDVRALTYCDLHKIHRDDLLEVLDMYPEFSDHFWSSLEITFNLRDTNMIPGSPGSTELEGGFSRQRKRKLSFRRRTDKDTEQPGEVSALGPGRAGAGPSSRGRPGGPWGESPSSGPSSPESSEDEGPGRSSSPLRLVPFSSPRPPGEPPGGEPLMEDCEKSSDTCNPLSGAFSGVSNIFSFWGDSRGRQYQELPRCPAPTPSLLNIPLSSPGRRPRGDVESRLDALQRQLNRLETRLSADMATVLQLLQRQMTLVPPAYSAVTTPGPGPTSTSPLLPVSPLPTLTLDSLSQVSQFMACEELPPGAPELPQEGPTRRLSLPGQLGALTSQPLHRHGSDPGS

[4] = target: CYP3A4 (Homo sapiens, UniProt P08684); test: Inhibition of CYP3A4 at 10 uM; type: ADME
Chain of CYP3A4 (P08684 whole entry): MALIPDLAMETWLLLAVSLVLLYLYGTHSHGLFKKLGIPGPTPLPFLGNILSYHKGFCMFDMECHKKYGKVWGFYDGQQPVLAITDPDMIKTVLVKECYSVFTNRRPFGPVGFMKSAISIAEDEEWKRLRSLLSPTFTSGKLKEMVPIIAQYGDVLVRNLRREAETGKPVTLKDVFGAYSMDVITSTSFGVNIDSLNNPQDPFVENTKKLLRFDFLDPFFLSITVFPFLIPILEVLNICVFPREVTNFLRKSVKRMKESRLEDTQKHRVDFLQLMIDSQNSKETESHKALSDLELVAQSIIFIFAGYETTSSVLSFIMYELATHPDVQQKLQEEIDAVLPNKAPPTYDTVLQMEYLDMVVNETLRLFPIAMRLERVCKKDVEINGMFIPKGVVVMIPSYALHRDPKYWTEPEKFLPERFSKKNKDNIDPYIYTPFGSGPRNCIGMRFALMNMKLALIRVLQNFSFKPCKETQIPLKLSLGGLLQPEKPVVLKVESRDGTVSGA

[5] = target: T1, Tyrosine-protein kinase JAK2; test: Inhibition of JAK2-mediated STAT5 phosphorylation in human HEL 92.1.7 irf1-bla cells; type: cell-based
[6] = Clearance in rat at 1 mg/kg, iv; type: ADME, organism-based; set-up: dose 1 mg/kg, route intravenous; conditions: in vivo
[7] = target: T2, Tyrosine-protein kinase JAK3 (Homo sapiens, UniProt P52333); test: Inhibition of JAK3 using biotin-EQEDEPEGDYFEWLE- NH2 as substrate
T2 sequence (P52333 whole entry): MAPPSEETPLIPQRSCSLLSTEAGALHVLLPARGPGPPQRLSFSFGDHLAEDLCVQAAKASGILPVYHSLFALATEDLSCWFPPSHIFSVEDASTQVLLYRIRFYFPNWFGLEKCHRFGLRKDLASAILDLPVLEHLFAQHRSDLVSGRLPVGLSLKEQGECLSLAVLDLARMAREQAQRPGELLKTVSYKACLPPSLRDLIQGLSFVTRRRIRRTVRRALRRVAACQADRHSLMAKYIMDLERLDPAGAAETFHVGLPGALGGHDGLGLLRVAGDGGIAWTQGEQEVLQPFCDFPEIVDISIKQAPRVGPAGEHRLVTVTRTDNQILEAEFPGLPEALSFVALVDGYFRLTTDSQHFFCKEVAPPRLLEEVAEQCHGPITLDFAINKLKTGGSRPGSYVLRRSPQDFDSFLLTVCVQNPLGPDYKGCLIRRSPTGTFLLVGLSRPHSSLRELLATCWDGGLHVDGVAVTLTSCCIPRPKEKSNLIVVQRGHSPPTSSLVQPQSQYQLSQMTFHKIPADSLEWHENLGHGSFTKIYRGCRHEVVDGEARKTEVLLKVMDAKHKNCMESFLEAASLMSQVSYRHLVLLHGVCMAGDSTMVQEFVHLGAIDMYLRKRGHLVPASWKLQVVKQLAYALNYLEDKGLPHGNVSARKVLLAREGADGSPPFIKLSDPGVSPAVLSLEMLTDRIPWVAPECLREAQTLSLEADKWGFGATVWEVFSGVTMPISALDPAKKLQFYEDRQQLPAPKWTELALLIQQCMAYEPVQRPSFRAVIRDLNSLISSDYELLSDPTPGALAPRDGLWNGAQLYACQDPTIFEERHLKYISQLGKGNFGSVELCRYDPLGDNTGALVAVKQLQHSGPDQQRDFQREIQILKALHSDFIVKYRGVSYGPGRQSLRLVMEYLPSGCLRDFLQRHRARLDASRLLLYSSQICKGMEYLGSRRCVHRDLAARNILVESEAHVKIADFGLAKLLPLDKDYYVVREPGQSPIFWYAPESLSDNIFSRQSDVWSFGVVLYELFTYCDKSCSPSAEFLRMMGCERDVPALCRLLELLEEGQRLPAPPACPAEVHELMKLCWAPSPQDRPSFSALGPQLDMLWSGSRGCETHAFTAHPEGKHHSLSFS

[8] = target: CYP2C9 (Homo sapiens, UniProt P11712); test: Inhibition of CYP2C9 at 10 uM; type: ADME
Chain of CYP2C9 (P11712 whole entry): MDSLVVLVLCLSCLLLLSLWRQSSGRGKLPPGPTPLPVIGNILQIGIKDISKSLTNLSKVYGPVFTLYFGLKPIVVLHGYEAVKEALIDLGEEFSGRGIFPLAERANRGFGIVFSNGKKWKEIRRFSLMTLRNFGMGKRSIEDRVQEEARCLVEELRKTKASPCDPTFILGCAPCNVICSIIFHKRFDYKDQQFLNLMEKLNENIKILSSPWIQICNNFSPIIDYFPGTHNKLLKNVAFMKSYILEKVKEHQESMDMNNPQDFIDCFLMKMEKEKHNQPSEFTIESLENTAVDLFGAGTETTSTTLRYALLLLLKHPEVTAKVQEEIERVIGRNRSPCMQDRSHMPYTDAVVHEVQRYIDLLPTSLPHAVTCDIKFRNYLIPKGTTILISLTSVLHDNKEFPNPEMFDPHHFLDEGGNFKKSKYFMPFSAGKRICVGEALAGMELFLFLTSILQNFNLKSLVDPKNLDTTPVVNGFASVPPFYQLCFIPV

T1 sequence (O60674 whole entry): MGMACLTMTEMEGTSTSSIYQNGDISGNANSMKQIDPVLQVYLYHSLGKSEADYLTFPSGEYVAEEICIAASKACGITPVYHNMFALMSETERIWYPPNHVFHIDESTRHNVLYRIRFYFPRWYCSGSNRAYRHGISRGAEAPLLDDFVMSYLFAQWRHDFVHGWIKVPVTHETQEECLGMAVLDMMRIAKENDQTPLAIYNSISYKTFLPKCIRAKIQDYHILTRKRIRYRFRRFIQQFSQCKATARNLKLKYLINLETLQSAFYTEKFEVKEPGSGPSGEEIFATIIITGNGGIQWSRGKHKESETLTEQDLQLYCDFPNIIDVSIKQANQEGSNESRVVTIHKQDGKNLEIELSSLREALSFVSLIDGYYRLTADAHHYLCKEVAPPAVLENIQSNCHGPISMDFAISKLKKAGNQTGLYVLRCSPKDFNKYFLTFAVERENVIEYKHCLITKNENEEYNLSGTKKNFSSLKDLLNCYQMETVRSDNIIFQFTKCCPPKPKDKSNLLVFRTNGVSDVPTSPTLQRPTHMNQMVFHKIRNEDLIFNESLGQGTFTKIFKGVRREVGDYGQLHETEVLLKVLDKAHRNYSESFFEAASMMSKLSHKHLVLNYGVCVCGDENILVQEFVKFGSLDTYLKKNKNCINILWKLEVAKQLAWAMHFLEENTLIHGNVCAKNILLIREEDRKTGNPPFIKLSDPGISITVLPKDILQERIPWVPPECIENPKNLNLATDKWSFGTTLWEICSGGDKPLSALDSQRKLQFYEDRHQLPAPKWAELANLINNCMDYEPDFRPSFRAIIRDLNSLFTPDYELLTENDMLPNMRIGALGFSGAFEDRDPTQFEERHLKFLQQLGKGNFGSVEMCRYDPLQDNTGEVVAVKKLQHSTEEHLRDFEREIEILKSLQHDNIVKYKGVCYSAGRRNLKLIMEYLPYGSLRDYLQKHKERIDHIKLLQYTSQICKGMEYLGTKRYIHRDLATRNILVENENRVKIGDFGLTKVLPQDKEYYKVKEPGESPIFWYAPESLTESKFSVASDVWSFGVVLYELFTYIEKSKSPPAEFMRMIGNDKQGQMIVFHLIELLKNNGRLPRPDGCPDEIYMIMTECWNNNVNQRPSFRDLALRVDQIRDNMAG

Row | Compound | Ratio IC50 [1] | IC50 [2] | IC50 [3] | inhibition at 10 µM [4] | IC50 [5] | clearance [6] | IC50 [7] | inhibition at 10 µM [8]
1 | NC(=O)c1cnc(NC2CCCCC2)c2c1[nH]c1cccc(Cl)c12 | > 50 | 110 nM | – | – | – | – | – | –
2 | C[C@@H](Nc1ncc(C(N)=O)c2[nH]c3ccc(F)cc3c12)C(C)(C)C | > 50 | 210 nM | – | – | – | – | – | –
3 | C[C@H](Nc1ncc(C(N)=O)c2[nH]c3cc(-c4ccc(Cl)nn4)ccc3c12)C(C)(C)C | > 50 | 14 nM | – | – | – | – | – | –
4 | CC(C)Cn1cc(-c2ccc3c(c2)[nH]c2c(C(N)=O)cnc(N[C@@H](C)C(C)(C)C)c23)cn1 | > 50 | 41 nM | – | – | – | – | – | –
5 | Cn1cc(-c2ccc3c(c2)[nH]c2c(C(N)=O)cnc(NC4CCCCC4)c23)cn1 | > 50 | 5 nM | 620 nM | 75% | – | – | – | –
6 | CC(C)CNc1ncc(C(N)=O)c2[nH]c3ccc(F)cc3c12 | > 50 | 74 nM | – | – | – | – | – | –
7 | NC(=O)c1cnc(NC2CCCCC2)c2c1[nH]c1ccc(F)cc12 | > 50 | 17 nM | – | – | – | – | – | –
8 | NC(=O)c1cnc(NC2CCCCC2)c2c1[nH]c1cc(-c3cc[nH]n3)ccc12 | – | 23 nM | – | – | – | – | – | –
9 | NC(=O)c1cnc(N[C@H](C2CC2)C(F)(F)F)c2c1[nH]c1cc(-c3cnc(N4CCOCC4)nc3)ccc12 | > 50 | 8 nM | – | – | 530 nM | 15 mL/min/kg | 430 nM | –
10 | NC(=O)c1cnc(NC(C2CC2)C2CC2)c2c1[nH]c1cc(-c3cn[nH]c3)ccc12 | – | 3 nM | – | 66% | 40 nM | 31 mL/min/kg | 220 nM | 80%
11 | CC(C)Nc1ncc(C(N)=O)c2[nH]c3ccc(F)cc3c12 | > 50 | 100 nM | – | – | – | – | – | –
12 | NC(=O)c1cnc(N[C@H](C2CC2)C(F)(F)F)c2c1[nH]c1cc(-c3cn[nH]c3)ccc12 | – | 1 nM | – | 68% | 32 nM | 21 mL/min/kg | 220 nM | 61%
13 | NC(=O)c1cnc(NC2CCCCC2)c2c1[nH]c1cc(-c3ccccc3)ccc12 | > 50 | 70 nM | – | – | – | – | – | –
14 | NC(=O)c1cnc(NC2CCCCC2)c2c1[nH]c1ccccc12 | > 50 | 59 nM | – | – | – | – | – | –
15 | CC(C)C(Nc1ncc(C(N)=O)c2[nH]c3cc(-c4cnn(C)c4)ccc3c12)C1CC1 (stereo unspecified) | > 50 | 3 nM | – | – | 95 nM | – | 210 nM | –
16 | NC(=O)c1cnc(NC2CCCCC2)c2c1[nH]c1cc(Cl)ccc12 | > 50 | 23 nM | – | – | – | – | – | –
17 | NC(=O)c1cnc(NC(C2CC2)C2CC2)c2c1[nH]c1cc(-c3cnc(N)cn3)ccc12 | > 50 | 4 nM | 720 nM | 65% | 100 nM | – | 640 nM | 46%
18 | Cn1cc(-c2ccc3[nH]c4c(C(N)=O)cnc(NC5CCCCC5)c4c3c2)cn1 | > 50 | 13 nM | – | – | – | – | – | –
19 | C[C@H](Nc1ncc(C(N)=O)c2[nH]c3cc(-c4ccc(N)nn4)ccc3c12)C(C)(C)C | > 50 | 10 nM | – | – | – | – | – | –
20 | NC(=O)c1cnc(NC2CCC2)c2c1[nH]c1ccc(F)cc12 | > 50 | 83 nM | – | – | – | – | – | –
21 | NC(=O)c1cnc(NC2CCCC2)c2c1[nH]c1ccc(F)cc12 | > 50 | 51 nM | – | – | – | – | – | –

Row | Compound | Ratio IC50 [1] | IC50 [2] | IC50 [3] | inhibition at 10 µM [4] | IC50 [5] | clearance [6] | IC50 [7] | inhibition at 10 µM [8]
22 | NC(=O)c1cnc(NC2CCCCCC2)c2c1[nH]c1ccc(F)cc12 | > 50 | 19 nM | – | – | – | – | – | –
23 | C[C@H](Nc1ncc(C(N)=O)c2[nH]c3ccc(F)cc3c12)C(C)(C)C | > 50 | 52 nM | – | – | – | – | – | –
24 | Cn1cc(-c2ccc3c(c2)[nH]c2c(C(N)=O)cnc(N[C@@H](C4CC4)C(F)(F)F)c23)cn1 | – | 9 nM | – | – | 530 nM | – | 1900 nM | –
25 | NC(=O)c1cnc(NC2CCCCC2)c2c1[nH]c1cc(-c3cn[nH]c3)ccc12 | > 50 | 13 nM | – | – | – | – | – | –
26 | NC(=O)c1cnc(NC(C2CC2)C2CC2)c2c1[nH]c1cc(-c3cnc(N)nc3)ccc12 | > 50 | 1 nM | 8200 nM | 55% | 29 nM | 21 mL/min/kg | 220 nM | 35%
27 | NC(=O)c1cnc(NC(C2CC2)C2CC2)c2c1[nH]c1cc(-c3cccnn3)ccc12 | > 50 | 2 nM | – | – | 28 nM | – | 270 nM | –
28 | CNc1ncc(C(N)=O)c2[nH]c3ccc(F)cc3c12 | > 50 | 210 nM | – | – | – | – | – | –
29 | CCC(Nc1ncc(C(N)=O)c2[nH]c3cc(-c4cnn(C)c4)ccc3c12)C1CC1 (stereo unspecified) | > 50 | 2 nM | – | – | 45 nM | – | 170 nM | –
30 | Cn1cc(-c2ccc3c(c2)[nH]c2c(C(N)=O)cnc(N[C@H](C4CCC4)C(F)(F)F)c23)cn1 | > 50 | 12 nM | – | – | 350 nM | – | 1700 nM | –
31 | NC(=O)c1cnc(NC2CCOCC2)c2c1[nH]c1ccc(F)cc12 | > 50 | 18 nM | – | – | – | – | – | –
32 | NC(=O)c1cnc(NC2CCCCC2)c2c1[nH]c1ccc(-c3ccccc3)cc12 | > 50 | 180 nM | – | – | – | – | – | –
33 | CCCCNc1ncc(C(N)=O)c2[nH]c3ccc(F)cc3c12 | > 50 | 49 nM | – | – | – | – | – | –
34 | C[C@H](Nc1ncc(C(N)=O)c2[nH]c3cc(-c4ccnc(N)n4)ccc3c12)C(C)(C)C | > 50 | 12 nM | – | – | – | – | – | –
35 | CC(C)[C@@H](Nc1ncc(C(N)=O)c2[nH]c3cc(-c4cnn(C)c4)ccc3c12)C(F)(F)F | > 50 | 3 nM | – | – | – | – | 560 nM | –
36 | NC(=O)c1cnc(NC2CCCCC2)c2c1[nH]c1cc(-c3ccn[nH]3)ccc12 | > 50 | – | – | – | – | – | – | –
37 | CCCNc1ncc(C(N)=O)c2[nH]c3ccc(F)cc3c12 | > 50 | 68 nM | – | – | – | – | – | –
38 | NC(=O)c1cnc(N2CCCCC2)c2c1[nH]c1ccc(F)cc12 | > 50 | 190 nM | – | – | – | – | – | –
39 | NC(=O)c1cnc(N[C@H](C2CC2)C(F)(F)F)c2c1[nH]c1cc(-c3ccc(N4CCS(=O)(=O)CC4)nn3)ccc12 | > 50 | 2 nM | – | – | 120 nM | 54 mL/min/kg | 160 nM | –
40 | C[C@@H](Nc1ncc(C(N)=O)c2[nH]c3cc(-c4cnn(C)c4)ccc3c12)C1CC1 | > 50 | 11 nM | – | – | 79 nM | – | 740 nM | –
41 | NC(=O)c1cnc(N2CCCC2)c2c1[nH]c1ccc(F)cc12 | > 50 | 230 nM | – | – | – | – | – | –
42 | CCN(c1ncc(C(N)=O)c2[nH]c3ccc(F)cc3c12)C1CCCCC1 | > 50 | 2700 nM | – | – | – | – | – | –
